Columns and labels:
[1] = test system: human apheresis platelets; test: Storage quality of human apheresis platelets at room temperature; assay type: cell-based; conditions: summary statement of the results of the examples; substance used individually
Method: (§1) An appropriate amount of apheresis platelets was added to a 50 ml centrifuge tube (the volume should not exceed 15 ml/tube). The mouth of the 50 ml centrifuge tube was covered and fixed with a clinical platelet storage bag as a gas-permeable membrane, placed on a horizontal shaker. The speed of the shaker was determined according to the volume inside the tube, ensuring the platelets were fully shaken and fully exposed to oxygen for respiration without touching the gas-permeable membrane.
This method can simulate the storage of clinical apheresis platelets in a laboratory environment and can be used for sampling and the sampling is completed. The collected apheresis platelet samples can be used for platelet counting, flow cytometry index detection, protein collection, platelet viability detection, ATP content detection and other purposes.

[2] = test system: human apheresis platelets; test: Platelet aggregation / responsiveness to agonists of stored apheresis platelets; assay type: cell-based
Method: as §1
By conventional methods, using a platelet aggregation instrument, 300 μl of 3×10^8 platelets/ml and the required […] were added to the aggregation tube and incubated at 37° C. for 3 minutes after gentle stirring. A baseline was established and the changes of an aggregation curve were observed within 5 minutes.

[3] = test system: human apheresis platelets; test: Platelet apoptosis (Annexin V flow cytometry) of stored apheresis platelets; assay type: cell-based; conditions: for apoptosis ratio of platelets: N-acetylcysteine 5 mM, Mesna 50 uM, glutathione 200 uM, 7th day of storage, vs control group; for apoptosis ratio: Dorsomorphin 2HCl 1 uM, 4 uM, AICAR 0.1 uM, 0.5 uM, 4th day of storage, vs control
Method: as §1
Platelets were sampled according to conventional methods, then the concentration of platelets was diluted to 10^8/ml with Tyrodes's Buffer. 25 μl of platelets in the experimental group and control group were added to new EP tubes. Each tube was added with 5 μl of 10×Binding Buffer, 2 μl of FITC labeled Annexin V and 18 μl of Tyrodes's Buffer to a total of 50 μl in the reaction system. After incubating at room temperature in the dark for 15 minutes, 200 μl 1×Binding Buffer was added for detection on the machine, with a tube of unlabeled platelets as a negative control. The platelets labeled with Annexin V were detected within one hour after labeling and the FITC-positive cell population was the platelets in the process of apoptosis.

[4] = test system: human apheresis platelets; test: Mitochondrial potential difference (JC1/TMRM flow cytometry) of stored apheresis platelets; assay type: cell-based
Method: as §1
9.1 Changes in platelet mitochondrial potential difference were detected by JC1 fluorescent dyes: A JC1 working solution was prepared according to conventional methods. Positive control platelets were treated with CCCP to reduce mitochondrial membrane potential, that is, the positive control. Sampled platelets were diluted to 10^8/ml. 25 μl of platelets was taken and added with 25 μl of JC1 working solution. After mixed and incubated at 37° C. in the dark for 30 minutes, a 200 μl of 1×JC1 staining buffer was added for detecting the fluorescence intensity on the machine. The relative ratio of red and green fluorescence was used to represent the ratio of mitochondrial depolarization.
The platelet sampling and dilution were as described above. 50 μl Tyrodes's Buffer and 0.1 μl TMRM stock solution were added to a 50 μl dilution solution, incubated at 37° C. in the dark for 30 minutes, with 500 μl Tyrodes's Buffer added for detection on the machine. The fluorescence intensity of TMRM will red shift according to the change of mitochondrial potential difference. The fluorescence intensity was used to represent the level of mitochondrial potential difference.

[5] = test system: human apheresis platelets; test: Mitochondrial reactive oxygen species (Mitosox) of stored apheresis platelets; assay type: cell-based; conditions: for accumulation of intracellular reactive oxygen species: N-acetylcysteine 5 mM, Mesna 50 uM, glutathione 200 uM, 7th day of storage, vs control group; for mitochondrial reactive oxygen species levels: Dorsomorphin 2HCl 1 uM, 4 uM, AICAR 0.1 uM, 0.5 uM, 4th day of storage, vs control
Method: as §1
Using the conventional method, 25 μl platelets were diluted in equal proportions, added with 0.1 μl Mitosox reagent (5 mM) and incubated in the dark at 37° C. for 30 minutes, with 200 μl buffer added to detect the fluorescence intensity; stained the adherent cells: after centrifugation at 600 g for 5 minutes to remove the supernatant, the cells were resuspended in 200 μl Mitosox working solution, incubated at 37° C. in the dark for 30 minutes, centrifuged at 600 g for 5 minutes, washed twice with PBS and added with 200 μl PBS for resuspending and detecting the cells.

stored mouse platelets = test: Transfusion of stored mouse PRP into WT mice; assay type: in vivo; conditions: mouse PRP stored in vitro 1 day with NMN 0.5 mM, NAC 5 mM, AMPKi 4 uM alone or combined; biotin-labeled, infused into WT mice; PBS control
Method: (§2) Blood was taken from the abdominal aorta of mice. Apyrase (in a final concentration of 1 U/ml) and PGE1 (in a final concentration of 0.1 μg/ml) that can inhibit platelet aggregation was then added with to the whole blood, mixed quickly and centrifuged (1050 rpm, room temperature, 10 minutes). After two centrifuges, the upper plasma of the experimental group was sucked out, discarded and the platelet precipitate at the bottom was retained. The plasma of wild-type mice was evenly distributed to the platelet pellets of mice in the experimental group and wild-type group. The platelets were uniformly dispersed and suspended, and then preserved according to the method of human platelets.
In platelet transfusions, it is undesirable for stored platelets to be rapidly cleared from circulation. To evaluate the effects of the above compounds on the quality of platelets stored in vivo, two mouse transfusion models were used. In the first model, stored human platelets were transfused into immunodeficient NCG (NOD-Prkdcem26Cd52Il2rgem 26Cd22/NjuCrl) mice. NMN+NAC+AMPKi (NMN 0.5 mM, NAC 5 mM, AMPKi 4 uM) or PBS as a control was added. Human platelet concentrates were stored for 6 days in vitro. They were then labeled with biotin and infused into NCG mice. […] However, platelet clearance was lower in the NMN+NAC+AMPKi group compared to the control group (FIG. 8B). In another group of models, mouse PRP was stored in vitro for 1 day, added with NMN, NAC, AMPK inhibitor or NMN+NAC+AMPK inhibitor (NMN 0.5 mM, NAC 5 mM, AMPKi 4 uM) or PBS as a control. They were then labeled with biotin and infused into WT mice.

mouse platelets [6] = test: Mouse ITP model (anti-CD42b antibody R300); assay type: in vivo, mice; conditions: intravenous, combination 1 μmol NMN, 10 μmol NAC, 8 nmol AMPKi, vs control group
Method: WT mice were intravenously injected with NMN, NAC, AMPK inhibitor, or NMN+NAC+AMPK inhibitor. After 30 minutes, basal platelet counts were first determined from complete blood counts using a HEMAVET automated hematology analyzer. Mouse platelets were cleared by intravenous injection of 2 μg anti-CD42b monoclonal antibody R300 (purchased from Emfret). Orbital blood was collected at different time points to monitor platelet clearance and recovery.
To evaluate the effects of NMN, NAC or AMPK inhibitor on platelet survival in ITP patients, an ITP mouse model was established by intravenous injection of a low dose of anti-CD42b antibody R300.

mouse platelets [7] = test: Storage of mouse platelet-rich plasma with added palmitoyl carnitine; assay type: cell-based, mice; conditions: palmitoyl carnitine 2 μM and 10 μM; days 1 and 2 of storage; concentration-dependent trend
Method: as §2, with “platelets. Whole blood was obtained from wild-type rats and wild-type mice via abdominal aortic puncture, and platelet-rich plasmas (PRP) were prepared separately for rats and mice. Platelet storage experiments were conducted, with two additional experimental groups each receiving the addition of palmitoyl carnitine at different concentrations (2 μM and 10 μM). Platelet apoptosis ratio, mitochondrial ROS level and changes in mitochondrial membrane potential were measured during storage days 0-4.” for “platelets.”

rat platelets = test: Storage of rat platelet-rich plasma with added palmitoyl carnitine; assay type: cell-based, rats; conditions: palmitoyl carnitine 2 μM and 10 μM; days 1 and 2 of storage
Method: Whole blood was obtained from wild-type rats and wild-type mice via abdominal aortic puncture, and platelet-rich plasmas (PRP) were prepared separately for rats and mice. Platelet storage experiments were conducted, with two additional experimental groups each receiving the addition of palmitoyl carnitine at different concentrations (2 μM and 10 μM). Platelet apoptosis ratio, mitochondrial ROS level and changes in mitochondrial membrane potential were measured during storage days 0-4.

[8] = test system: 293T cells stably transfected with CPT2, CPT2K79Q or CPT2K79R; test: Electron microscopy of mitochondria in CPT2 and CPT2 mutant stable transfected cell lines treated with palmitoylcarnitine; assay type: cell-based; conditions: 4 hours
Source text: A plasmid of pLVX-IRES-ZsGreen1 inserted with CPT2K79R, a plasmid of pLVX-IRES-ZsGreen1 inserted with CPT2K79Q, and a plasmid of pLVX-IRES-ZsGreen1 inserted with CPT2 were synthesized by Shanghai Sunny Biotechnology Co., Ltd. Lentiviral transfection, 293T cell infection, and stably transfected cell lines were all carried out by conventional methods.
To further verify the correlation between CPT2K79 acetylation and the accumulation of acylcarnitine, three plasmids were constructed: wild-type CPT2, CPT2K79R mutation, and CPT2K79Q mutation. These three plasmids were packaged into lentiviruses using a three-plasmid system for infecting 293T cells. The exogenous genes were integrated into the host genome, and […] stable transfected cell lines were selected through flow cytometry sorting. CPT2K79R is a CPT2 molecule with the mutation of lysine at position 79 to arginine, abolishing acetylation at position 79. CPT2K79Q is a CPT2 molecule with the mutation of lysine at position 79 to glutamine, simulating acetylation at position 79.
After treating CPT2 and CPT2 mutant stable transfected cell lines with acylcarnitine for 4 hours, the cells were fixed. Then electron microscopy was used to observe the status and structure of mitochondria in different cell lines treated with or without palmitoylcarnitine. […] In one embodiment, there were anomalies in the morphology and arrangement of mitochondrial cristae, and the cristae became disarrayed, fragmented and blurred, with bright areas appearing in the center of the mitochondria, indicating severe damage to the mitochondrial inner membrane structure.

[9] = N-acetylcysteine 5 mM, Mesna 50 uM, glutathione 200 uM, 7th day of storage
[10] = Dorsomorphin 2HCl 1 uM, 4 uM, AICAR 0.1 uM, 0.5 uM, 4th day of storage, vs control
[11] = added to freshly isolated platelets, second day of platelet storage, compared to the control group

Question: What does the source list for CC(=O)N[C@@H](CS)C(=O)O [N-acetylcysteine]?
Answer: quality of platelets [1]: significantly improved; platelet responsiveness to stimuli [2, 9]: protected; apoptosis ratio of platelets [3]: lower; mitochondrial membrane potential [4, 9]: protected; accumulation of intracellular reactive oxygen species [5]: reduce; survival in vivo of stored platelets (stored mouse platelets): better than controls; platelet survival rate (mouse platelets [6]): higher; recovery rate of platelet counts (mouse platelets [6]): higher

Question: With O=C(NCc1ccncc1)Nc1ccc(S(=O)(=O)N2CC3CCC(C2)O3)cc1 [SBI-797812] as the molecule, how does the quality of platelets [1] read?
Answer: significantly improve

Question: What does the source list for O=S(=O)([O-])CCS.[Na+] [Mesna, sodium 2-mercaptoethane sulfonate]?
Answer: platelet responsiveness to stimuli [2, 9]: protected; apoptosis ratio of platelets [3]: lower; mitochondrial membrane potential [4, 9]: protected; accumulation of intracellular reactive oxygen species [5]: reduce

Question: Which quality of platelets [1] does the source give for NC(=O)c1cccnc1 [NAM, nicotinamide] here?
Answer: significantly improve

Question: Which quality of platelets [1] does the source give for Cl.Cl.c1cc(-c2cnn3cc(-c4ccc(OCCN5CCCCC5)cc4)cnc23)ccn1 [Dorsomorphin 2HCl] here?
Answer: significantly improved

Question: What about the “platelet responsiveness to stimuli” value [2, 10] of the same molecule?
Answer: varying degrees of improvement

Question: And the apoptosis ratio [3]?
Answer: varying degrees of improvement

Question: And the mitochondrial membrane potential [4, 10]?
Answer: varying degrees of improvement

Question: And the “mitochondrial reactive oxygen species levels” value [5]?
Answer: varying degrees of improvement

Question: What about the “survival in vivo of stored platelets” value (stored mouse platelets) of the same molecule?
Answer: better than controls

Question: And the platelet survival rate (mouse platelets [6])?
Answer: higher

Question: What about the “recovery rate of platelet counts” value (mouse platelets [6]) of the same molecule?
Answer: higher

Question: How did the quality of platelets [1] turn out when NC(=O)c1ccc[n+]([C@@H]2O[C@H](COP(=O)([O-])O)[C@@H](O)[C@H]2O)c1 [NMN, nicotinamide mononucleotide] was run?
Answer: significantly improved

Question: And the “survival in vivo of stored platelets” value (stored mouse platelets)?
Answer: better than controls

Question: What about the platelet survival rate (mouse platelets [6]) of the same molecule?
Answer: higher

Question: What about the “recovery rate of platelet counts” value (mouse platelets [6]) of the same molecule?
Answer: higher

Question: NC(=O)c1ccc[n+]([C@@H]2O[C@H](CO)[C@@H](O)[C@H]2O)c1 [NR, nicotinamide riboside] was tested. Which quality of platelets [1] did it give?
Answer: significantly improve

Question: Which “platelet responsiveness to stimuli” value [2, 10] does the source give for NC(=O)c1ncn([C@@H]2O[C@H](CO)[C@@H](O)[C@H]2O)c1N [AICAR] here?
Answer: detrimental

Question: What about the apoptosis ratio [3] of the same molecule?
Answer: increased

Question: And the mitochondrial membrane potential [4, 10]?
Answer: significant decrease

Question: What about the “mitochondrial reactive oxygen species levels” value [5] of the same molecule?
Answer: elevation

Question: How did the quality of platelets [1] turn out when OC(CNc1ccccc1)Cn1c2ccc(Br)cc2c2cc(Br)ccc21 (centres unmarked) [P7C3] was run?
Answer: significantly improve

Question: Which results are given for CCCCCCCCCCCCCCCC(=O)OC(CC(=O)[O-])C[N+](C)(C)C (centres unmarked) [palmitoylcarnitine]?
Answer: apoptosis rates [3, 11]: higher; mitochondrial membrane potential [4, 11]: lower; levels of mitochondrial reactive oxygen species [5, 11]: higher; status of mouse platelets (mouse platelets [7]): effectively reduced; status of rat platelets (rat platelets): did not cause significant changes; effect on the mitochondrial status ([8]; CPT2K79Q cell line, low concentrations of palmitoylcarnitine): particularly pronounced; effect on the mitochondrial status ([8]; CPT2K79R cell line, low-dose palmitoylcarnitine): little effect; mitochondria (electron microscopy) ([8]; three cell lines, low concentrations of palmitoylcarnitine, vs group without palmitoylcarnitine): significantly worse

Question: With N[C@@H](CCC(=O)N[C@@H](CS)C(=O)NCC(=O)O)C(=O)O [glutathione] as the molecule, how does the “platelet responsiveness to stimuli” value [2, 9] read?
Answer: protected

Question: What about the “apoptosis ratio of platelets” value [3] of the same molecule?
Answer: lower

Question: What about the mitochondrial membrane potential [4, 9] of the same molecule?
Answer: protected

Question: And the “accumulation of intracellular reactive oxygen species” value [5]?
Answer: reduce

Source: patent US20250011719A1, “NEW METHOD FOR IMPROVING QUALITY OF PLATELETS” (SHANGHAI SYNVIDA BIOTECHNOLOGY CO. LTD., priority 2021, published 2025)
